The supplement of paper PMC10307832

Key:
Assay in all cases: relative viability (nuclei count vs DMSO), 5 days (fraction); higher = more cells survive
HCC-366 = test system: HCC-366
Method in brief: (§1)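 Lung cancer cell lines were pin-tool dosed in 1536-well plates on the day after seeding, with either a lone drug or a fixed anchor-drug dose plus five library-drug doses (not always all listed) in √10 steps. Nuclei were counted on 4× images after 5 days. Relative viability is the ratio of treated-well to vehicle-well nuclei counts, with each value a median of duplicate plates.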

NCI-H2009 = test system: NCI-H2009
Method in brief: as §1

NCI-H2228 = test system: NCI-H2228
Method in brief: as §1

NCI-H23 = test system: NCI-H23
Method in brief: as §1

NCI-H1944 = test system: NCI-H1944
Method in brief: as §1

NCI-H2405 = test system: NCI-H2405
Method in brief: as §1

ABC-1 = test system: ABC-1
Method in brief: as §1

SK-LU-1 = test system: SK-LU-1
Method in brief: as §1

NCI-H2023 = test system: NCI-H2023
Method in brief: as §1

UMC-11 = test system: UMC-11
Method in brief: as §1

HCC-15 = test system: HCC-15
Method in brief: as §1

NCI-H1734 = test system: NCI-H1734
Method in brief: as §1

EMC-BAC-2 = test system: EMC-BAC-2
Method in brief: as §1

COR-L23 = test system: COR-L23
Method in brief: as §1

LC-2-ad = test system: LC-2-ad
Method in brief: as §1

NCI-H838 = test system: NCI-H838
Method in brief: as §1

ChaGo-K-1 = test system: ChaGo-K-1
Method in brief: as §1

A-427 = test system: A-427
Method in brief: as §1

HARA = test system: HARA
Method in brief: as §1

NCI-H1993 = test system: NCI-H1993
Method in brief: as §1

HCC-78 = test system: HCC-78
Method in brief: as §1

NCI-H2126 = test system: NCI-H2126
Method in brief: as §1

With `Oc1nc(-c2ccc(C(F)(F)F)cc2)nc2c1CSCC2` [XAV939] + C[C@@H](Oc1cc(-c2cnn(C3CCNCC3)c2)cnc1N)c1c(Cl)ccc(F)c1Cl [Crizotinib] (partner 1 µM) as the compound, how does the relative viability (HCC-366; first compound 0.08 µM) read?
The relative viability was 0.66.

What about the relative viability (HCC-366; first compound 0.253 µM) of the same compound?
Its relative viability is 0.56.

And the relative viability (HCC-366; first compound 0.8 µM)?
Its relative viability is 0.52.

And the relative viability (HCC-366; first compound 2.53 µM)?
The relative viability was 0.466.

And the relative viability (NCI-H2009; first compound 0.08 µM)?
The relative viability was 1.12.

And the relative viability (NCI-H2009; first compound 0.253 µM)?
Its relative viability is 1.04.

What about the relative viability (NCI-H2009; first compound 0.8 µM) of the same compound?
The relative viability was 1.01.

And the relative viability (NCI-H2009; first compound 2.53 µM)?
The relative viability was 0.96.

And the relative viability (NCI-H2228; first compound 0.08 µM)?
Its relative viability is 0.431.

And the relative viability (NCI-H2228; first compound 0.253 µM)?
The relative viability was 0.438.

What about the relative viability (NCI-H2228; first compound 0.8 µM) of the same compound?
The relative viability was 0.464.

And the relative viability (NCI-H2228; first compound 2.53 µM)?
Its relative viability is 0.398.

What about the relative viability (NCI-H23; first compound 0.08 µM) of the same compound?
Its relative viability is 0.502.

And the relative viability (NCI-H23; first compound 0.253 µM)?
Its relative viability is 0.425.

What about the relative viability (NCI-H23; first compound 0.8 µM) of the same compound?
Its relative viability is 0.436.

What about the relative viability (NCI-H23; first compound 2.53 µM) of the same compound?
Its relative viability is 0.426.

What about the relative viability (NCI-H1944; first compound 0.08 µM) of the same compound?
The relative viability was 1.32.

What about the relative viability (NCI-H1944; first compound 0.253 µM) of the same compound?
The relative viability was 1.08.

And the relative viability (NCI-H1944; first compound 0.8 µM)?
The relative viability was 1.03.

What about the relative viability (NCI-H1944; first compound 2.53 µM) of the same compound?
Its relative viability is 0.959.

What about the relative viability (NCI-H2405; first compound 0.08 µM) of the same compound?
The relative viability was 0.906.

What about the relative viability (NCI-H2405; first compound 0.253 µM) of the same compound?
Its relative viability is 0.816.

What about the relative viability (NCI-H2405; first compound 0.8 µM) of the same compound?
The relative viability was 0.808.

And the relative viability (NCI-H2405; first compound 2.53 µM)?
The relative viability was 0.775.

What about the relative viability (ABC-1; first compound 0.08 µM) of the same compound?
The relative viability was 1.32.

And the relative viability (ABC-1; first compound 0.253 µM)?
The relative viability was 0.905.

What about the relative viability (ABC-1; first compound 0.8 µM) of the same compound?
The relative viability was 0.908.

And the relative viability (ABC-1; first compound 2.53 µM)?
The relative viability was 0.603.

And the relative viability (SK-LU-1; first compound 0.08 µM)?
Its relative viability is 0.929.

What about the relative viability (SK-LU-1; first compound 0.253 µM) of the same compound?
The relative viability was 0.809.

What about the relative viability (SK-LU-1; first compound 0.8 µM) of the same compound?
The relative viability was 0.936.

What about the relative viability (SK-LU-1; first compound 2.53 µM) of the same compound?
Its relative viability is 0.823.

And the relative viability (NCI-H2023; first compound 0.08 µM)?
Its relative viability is 0.598.

What about the relative viability (NCI-H2023; first compound 0.253 µM) of the same compound?
The relative viability was 0.581.

What about the relative viability (NCI-H2023; first compound 0.8 µM) of the same compound?
The relative viability was 0.468.

What about the relative viability (NCI-H2023; first compound 2.53 µM) of the same compound?
Its relative viability is 0.43.

What about the relative viability (UMC-11; first compound 0.08 µM) of the same compound?
The relative viability was 0.777.

And the relative viability (UMC-11; first compound 0.8 µM)?
The relative viability was 0.578.

What about the relative viability (UMC-11; first compound 2.53 µM) of the same compound?
The relative viability was 0.414.

And the relative viability (HCC-15; first compound 0.08 µM)?
The relative viability was 0.968.

What about the relative viability (HCC-15; first compound 0.253 µM) of the same compound?
Its relative viability is 0.746.

And the relative viability (HCC-15; first compound 0.8 µM)?
Its relative viability is 0.823.

What about the relative viability (HCC-15; first compound 2.53 µM) of the same compound?
Its relative viability is 0.743.

And the relative viability (NCI-H1734; first compound 0.08 µM)?
The relative viability was 0.725.

What about the relative viability (NCI-H1734; first compound 0.253 µM) of the same compound?
Its relative viability is 0.637.

And the relative viability (NCI-H1734; first compound 0.8 µM)?
Its relative viability is 0.662.

What about the relative viability (NCI-H1734; first compound 2.53 µM) of the same compound?
Its relative viability is 0.619.

What about the relative viability (EMC-BAC-2; first compound 0.08 µM) of the same compound?
The relative viability was 0.821.

And the relative viability (EMC-BAC-2; first compound 0.253 µM)?
Its relative viability is 0.63.

And the relative viability (EMC-BAC-2; first compound 0.8 µM)?
The relative viability was 0.623.

And the relative viability (EMC-BAC-2; first compound 2.53 µM)?
The relative viability was 0.438.

What about the relative viability (COR-L23; first compound 0.08 µM) of the same compound?
The relative viability was 0.77.

And the relative viability (COR-L23; first compound 0.253 µM)?
Its relative viability is 0.675.

And the relative viability (COR-L23; first compound 0.8 µM)?
The relative viability was 0.671.

And the relative viability (COR-L23; first compound 2.53 µM)?
The relative viability was 0.555.

And the relative viability (LC-2-ad; first compound 0.08 µM)?
The relative viability was 0.468.

What about the relative viability (LC-2-ad; first compound 0.253 µM) of the same compound?
Its relative viability is 0.382.

And the relative viability (LC-2-ad; first compound 0.8 µM)?
Its relative viability is 0.435.

What about the relative viability (LC-2-ad; first compound 2.53 µM) of the same compound?
Its relative viability is 0.489.

What about the relative viability (NCI-H838; first compound 0.08 µM) of the same compound?
The relative viability was 0.875.

What about the relative viability (NCI-H838; first compound 0.253 µM) of the same compound?
The relative viability was 0.719.

What about the relative viability (NCI-H838; first compound 0.8 µM) of the same compound?
The relative viability was 0.759.

What about the relative viability (NCI-H838; first compound 2.53 µM) of the same compound?
Its relative viability is 0.432.

What about the relative viability (ChaGo-K-1; first compound 0.08 µM) of the same compound?
The relative viability was 1.28.

And the relative viability (ChaGo-K-1; first compound 0.253 µM)?
Its relative viability is 1.16.

What about the relative viability (ChaGo-K-1; first compound 0.8 µM) of the same compound?
The relative viability was 1.07.

And the relative viability (ChaGo-K-1; first compound 2.53 µM)?
Its relative viability is 0.883.

What about the relative viability (A-427; first compound 0.08 µM) of the same compound?
The relative viability was 0.918.

And the relative viability (A-427; first compound 0.253 µM)?
Its relative viability is 0.909.

And the relative viability (A-427; first compound 0.8 µM)?
The relative viability was 0.794.

And the relative viability (A-427; first compound 2.53 µM)?
Its relative viability is 0.729.

What about the relative viability (HARA; first compound 0.08 µM) of the same compound?
Its relative viability is 1.14.

And the relative viability (HARA; first compound 0.253 µM)?
The relative viability was 0.785.

And the relative viability (HARA; first compound 0.8 µM)?
Its relative viability is 1.05.

And the relative viability (HARA; first compound 2.53 µM)?
Its relative viability is 0.932.

And the relative viability (NCI-H1993; first compound 0.8 µM)?
Its relative viability is 0.85.

What about the relative viability (NCI-H1993; first compound 2.53 µM) of the same compound?
Its relative viability is 0.768.

What about the relative viability (HCC-78; first compound 0.08 µM) of the same compound?
Its relative viability is 0.342.

And the relative viability (HCC-78; first compound 0.253 µM)?
Its relative viability is 0.316.

And the relative viability (HCC-78; first compound 0.8 µM)?
Its relative viability is 0.326.

What about the relative viability (HCC-78; first compound 2.53 µM) of the same compound?
The relative viability was 0.299.

And the relative viability (NCI-H2126; first compound 0.08 µM)?
Its relative viability is 1.12.

What about the relative viability (NCI-H2126; first compound 0.253 µM) of the same compound?
Its relative viability is 0.95.

And the relative viability (NCI-H2126; first compound 0.8 µM)?
The relative viability was 0.938.

And the relative viability (NCI-H2126; first compound 2.53 µM)?
The relative viability was 0.828.
